According to PubChem BioAssay AID1963960 (Molecular Pharmacology Branch, DTP, NCI, 2024):

System: MDA-MB-468 spheroids with HUVEC/MSC, viability
Assay: Anticancer human tumor MDA-MB-468 cell line growth inhibition [PI3K];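 further: spheroids exposed to agents for seven days before readout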;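 on viability, T/C: 100% = DMSO vehicle control viability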
Conditions: for IC50: curve of first compound; for viability, T/C: stronger effect = lower value
How it was run: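 Agents were dosed from a top concentration near clinical Cmax (otherwise 10 microM) in half-log decrements, alone or combined with PI3K inhibitors. The spheroids contain tumor cells plus endothelial (HUVEC) and MSC stroma; viability is measured.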

For `CNC(=O)c1ccc(N2C(=S)N(c3ccc(C#N)c(C(F)(F)F)c3)C(=O)C2(C)C)cc1F` + CC(Nc1ncnc2nc[nH]c12)c1cc2cccc(Cl)c2c(=O)n1-c1ccccc1, the IC50 (second compound 0.0316 µM) was greater than 10 µM, the IC50 (second compound 0.1 µM) was greater than 10 µM and the IC50 (second compound 0.316 µM) was greater than 10 µM. The IC50 (second compound 1 µM) was greater than 10 µM, the IC50 (second compound 3.16 µM) was 7.73 µM and the IC50 (second compound 10 µM) was less than 0.0316 µM. It also gave a viability, T/C (second compound 0.0316 µM, first compound 0.0316 µM) of 78.9%, a viability, T/C (second compound 0.0316 µM, first compound 0.1 µM) of 80% and a viability, T/C (second compound 0.0316 µM, first compound 0.316 µM) of 77.2%. For the same compound, the viability, T/C (second compound 0.0316 µM, first compound 1 µM) was 90.6%, the viability, T/C (second compound 0.0316 µM, first compound 3.16 µM) was 89.7% and the viability, T/C (second compound 0.0316 µM, first compound 10 µM) was 73.1%. For the same compound, the viability, T/C (second compound 0.1 µM, first compound 0.0316 µM) was 88%, the viability, T/C (second compound 0.1 µM, first compound 0.1 µM) was 79.8% and the viability, T/C (second compound 0.1 µM, first compound 0.316 µM) was 73.4%. For the same compound, the viability, T/C (second compound 0.1 µM, first compound 1 µM) was 91.3%, the viability, T/C (second compound 0.1 µM, first compound 3.16 µM) was 81.1% and the viability, T/C (second compound 0.1 µM, first compound 10 µM) was 63.4%. The viability, T/C (second compound 0.316 µM, first compound 0.0316 µM) was 72%, the viability, T/C (second compound 0.316 µM, first compound 0.1 µM) was 72.5% and the viability, T/C (second compound 0.316 µM, first compound 0.316 µM) was 71.5%. It also gave a viability, T/C (second compound 0.316 µM, first compound 1 µM) of 77%, a viability, T/C (second compound 0.316 µM, first compound 3.16 µM) of 70.7% and a viability, T/C (second compound 0.316 µM, first compound 10 µM) of 61.1%. The viability, T/C (second compound 1 µM, first compound 0.0316 µM) was 58.2%, the viability, T/C (second compound 1 µM, first compound 0.1 µM) was 64.5% and the viability, T/C (second compound 1 µM, first compound 0.316 µM) was 67.4%. It also gave a viability, T/C (second compound 1 µM, first compound 1 µM) of 75%, a viability, T/C (second compound 1 µM, first compound 3.16 µM) of 55.5% and a viability, T/C (second compound 1 µM, first compound 10 µM) of 56.3%. The viability, T/C (second compound 3.16 µM, first compound 0.0316 µM) was 52.6%, the viability, T/C (second compound 3.16 µM, first compound 0.1 µM) was 56.3% and the viability, T/C (second compound 3.16 µM, first compound 0.316 µM) was 53.4%. For the same compound, the viability, T/C (second compound 3.16 µM, first compound 1 µM) was 57.1%, the viability, T/C (second compound 3.16 µM, first compound 3.16 µM) was 56.8% and the viability, T/C (second compound 3.16 µM, first compound 10 µM) was 42.1%. For the same compound, the viability, T/C (second compound 10 µM, first compound 0.0316 µM) was 40.1%, the viability, T/C (second compound 10 µM, first compound 0.1 µM) was 35.8% and the viability, T/C (second compound 10 µM, first compound 0.316 µM) was 36.1%. It also gave a viability, T/C (second compound 10 µM, first compound 1 µM) of 38%, a viability, T/C (second compound 10 µM, first compound 3.16 µM) of 35.7% and a viability, T/C (second compound 10 µM, first compound 10 µM) of 26.9%.
For `Cn1cnc2c(F)c(Nc3ccc(Br)cc3Cl)c(C(=O)NOCCO)cc21` + CC(Nc1ncnc2nc[nH]c12)c1cc2cccc(Cl)c2c(=O)n1-c1ccccc1, the IC50 (second compound 0.0316 µM) was greater than 3 µM, the IC50 (second compound 0.1 µM) was greater than 3 µM and the IC50 (second compound 0.316 µM) was greater than 3 µM. It also gave an IC50 (second compound 1 µM) greater than 3 µM, an IC50 (second compound 3.16 µM) of 1.96 µM and an IC50 (second compound 10 µM) of less than 0.00949 µM. The viability, T/C (second compound 0.0316 µM, first compound 0.00949 µM) was 88.8%, the viability, T/C (second compound 0.0316 µM, first compound 0.03 µM) was 90% and the viability, T/C (second compound 0.0316 µM, first compound 0.0949 µM) was 82.5%. The viability, T/C (second compound 0.0316 µM, first compound 0.3 µM) was 92.8%, the viability, T/C (second compound 0.0316 µM, first compound 0.949 µM) was 81.8% and the viability, T/C (second compound 0.0316 µM, first compound 3 µM) was 57.5%. For the same compound, the viability, T/C (second compound 0.1 µM, first compound 0.00949 µM) was 77%, the viability, T/C (second compound 0.1 µM, first compound 0.03 µM) was 86.9% and the viability, T/C (second compound 0.1 µM, first compound 0.0949 µM) was 101%. For the same compound, the viability, T/C (second compound 0.1 µM, first compound 0.3 µM) was 89.1%, the viability, T/C (second compound 0.1 µM, first compound 0.949 µM) was 86.1% and the viability, T/C (second compound 0.1 µM, first compound 3 µM) was 58.4%. For the same compound, the viability, T/C (second compound 0.316 µM, first compound 0.00949 µM) was 85.2%, the viability, T/C (second compound 0.316 µM, first compound 0.03 µM) was 83.8% and the viability, T/C (second compound 0.316 µM, first compound 0.0949 µM) was 75.6%. The viability, T/C (second compound 0.316 µM, first compound 0.3 µM) was 92.5%, the viability, T/C (second compound 0.316 µM, first compound 0.949 µM) was 90.3% and the viability, T/C (second compound 0.316 µM, first compound 3 µM) was 60.7%. The viability, T/C (second compound 1 µM, first compound 0.00949 µM) was 63.4%, the viability, T/C (second compound 1 µM, first compound 0.03 µM) was 66.1% and the viability, T/C (second compound 1 µM, first compound 0.0949 µM) was 76%. For the same compound, the viability, T/C (second compound 1 µM, first compound 0.3 µM) was 73.9%, the viability, T/C (second compound 1 µM, first compound 0.949 µM) was 67.6% and the viability, T/C (second compound 1 µM, first compound 3 µM) was 58.8%. It also gave a viability, T/C (second compound 3.16 µM, first compound 0.00949 µM) of 58.2%, a viability, T/C (second compound 3.16 µM, first compound 0.03 µM) of 58.5% and a viability, T/C (second compound 3.16 µM, first compound 0.0949 µM) of 55.8%. The viability, T/C (second compound 3.16 µM, first compound 0.3 µM) was 54.3%, the viability, T/C (second compound 3.16 µM, first compound 0.949 µM) was 66% and the viability, T/C (second compound 3.16 µM, first compound 3 µM) was 37.2%. The viability, T/C (second compound 10 µM, first compound 0.00949 µM) was 43.3%, the viability, T/C (second compound 10 µM, first compound 0.03 µM) was 41.2% and the viability, T/C (second compound 10 µM, first compound 0.0949 µM) was 37.6%. The viability, T/C (second compound 10 µM, first compound 0.3 µM) was 35.6%, the viability, T/C (second compound 10 µM, first compound 0.949 µM) was 29.4% and the viability, T/C (second compound 10 µM, first compound 3 µM) was 16.4%.
